From patent publication US11191820B2, “Method for inducing early T memory response with short peptides anti-tumor vaccine” (OSE IMMUNOTHERAPEUTICS, priority 2015, dated 2021)

Legend:
Type in all cases: in vivo, human
central memory T cells [1] = assay: Cultured IFN-γ ELISPOT after 10-day in vitro stimulation of PBMC, phase 1/2 colon cancer trial of OSE-2101; parameters: key to net SFC of vaccine positive CTL responses: —, indicates SFC response did not meet criteria and vaccine response was negative; details: for Mean SFC: 10 colon patients
Procedure: (§1) Clinical study design. Both trials were designed as phase 1/2, open label, multi-center, single dose, multiple administration studies to evaluate the safety and immunogenicity of the OSE-2101 immunotherapy. Patients were treated with 1 ml OSE-2101 every 3 weeks for a total of six doses. Each dose was administered subcutaneously in the same vicinity in the deltoid or upper thigh region, or at a contralateral site if local side-effects were observed. The study duration for each completed patient was 18 weeks. Clinical responses or patient survival were not measured in either phase 1/2 studies.
(§2) Clinical sample processing. Blood or leukapheresis product was obtained from patients at the pre-treatment, the Week 9 and Week 18 time points, 3 weeks after the third and sixth dose of OSE-2101 respectively. Peripheral blood mononuclear cells (PBMC) were isolated from samples within 24 hours of collection using a FICOLL-PAQUE density gradient and cryopreserved in containers designed to ensure optimal freezing (Mr. Frosty, Nalgene). For use, cells were rapidly thawed at 37° C. then transferred to human AB serum-containing medium for work-up.
(§3) Measurement of central T memory cells responses and T effector memory cells. The CTL responses in 16 total patients (10 colon and six NSCLC) were monitored for CTL responses against each epitope and against the wild-type epitope of epitopes analogs. For each patient, the pre-treatment, Week 9 and Week 18 time points were batch-tested in the same experiment to allow pre- versus post-treatment response comparison in the same experiment. Central T memory cells responses were measured using an IFN-γ enzyme-linked immunospot (cultured ELISPOT) assay following in vitro stimulation of PBMC for 10 days with each vaccine epitope. Briefly, PBMC from each time point were stimulated on day 0 with 10 μg/ml of each epitope individually in replicate in 48-well culture plates (2×10^6 PBMC/well). All cultures were fed with rIL-2 (Endogen, Woburn, Mass.; 10 U/ml final concentration) on days 1, 4 and 7. Ten days after initiation of culture, cells were harvested and tested for activity against specific vaccine peptides and corresponding wild-type peptides of vaccine analogs in the T memory ELISPOT assay. Cells were tested in Millipore IP 96-well plates pre-coated with mouse anti-human IFN-γ antibody (Mabtech USA, Cincinnati, Ohio). Five×10^4 cells and 1.25×10^4 cells from each culture were plated in triplicate wells together with 10^5 irradiated autologous PBMC and 10 μg/ml peptide. As a control, CTL were also tested against an irrelevant HLA-A2.1-binding HBV peptide. After 20 hours incubation, T memory ELISPOT plates were developed by performing sequential incubations with biotinylated anti-human IFN-γ antibody (Mabtech USA), Avidin-Peroxidase Complex (APC, Vector Laboratories, Burlingame, Calif.), and 3-amino-9-ethyl carbazole (AEC) substrate (Sigma Aldrich, St. Louis, Mo.). Spot-forming cells (SFC) were enumerated using a computer-assisted image analysis system (Zeiss KS ELISPOT Reader, Carl Zeiss MicroImaging, Thornwood, N.J.). Data is reported as the net SFC per 5×10^4 cells after subtracting spots induced with the irrelevant HBV peptide.

central memory T cells [2] = assay: Cultured IFN-γ ELISPOT after 10-day in vitro stimulation of PBMC, phase 1/2 NSCLC trial of OSE-2101; parameters: key to net SFC of vaccine positive CTL responses: —, indicates SFC response did not meet criteria and vaccine response was negative; details: for Mean SFC / No. Positive Responses: 6 NSCLC patients
Procedure: as §1, §2, §3

central memory T cells [3] = assay: Central memory T cell cultured ELISPOT, phase 2 trial in advanced NSCLC
Procedure: CTL Immune responses measured though cultured Elispot. The immunogenicity was measured in Phase 2 clinical trial on cryopreserved PBMC from each test sample were thawed in 5% human culture medium (RPMI-1640 medium with 25 mM HEPES, supplemented with 5% human AB serum, 4 mM L-glutamine, 0.5 mM sodium pyruvate, 0.1 mM MEM non-essential amino acids, 100 μg/ml streptomycin, and 100 U/ml penicillin) containing 30 μg/ml DNAase. After centrifugation for 5 minutes at 1200 rpm, the cell pellets were resuspended in 5% human culture medium and washed 2 times. For the central Memory T cell cultured ELISPOT assay, 2×10^6/ml PBMC were placed in replicate wells in a 48-well plates and stimulated for 10 days with 10 μg/ml of each peptide. As a positive control, PBMC were also stimulated with a pool of recall viral peptides. Human rIL2 (10 U/ml) was added to the peptide-stimulated cultures at day 1, day 4 and day 7. After 10 days the stimulated cells were harvested and plated at a concentration of 5×10^4/well. Assay wells also received irradiated autologous PBMC (1×10^5/well) and 10 μg/ml peptide, either the vaccine peptide, irrelevant peptide or positive control peptides. Cells stimulated in vitro with each analog epitope were also tested against the corresponding wild-type epitope.
Data analysis and acceptance criteria. Mean and standard deviation (SD) of spots in replicate wells were calculated in all assays by transferring raw ELISPOT data from each experiment to an Excel-based computer program. Positive vaccine-induced T-cell responses were determined according to the criteria described below.
Acceptance Criteria for peptide-Induced specific T-cell response through central memory T cells: The positive criteria for CTL responses used in the phase 2 trial was identical to the criteria in the phase 1/2 trials which was established prospectively after analyzing the variability of pre-treatment responses in patients against each vaccine epitope and the irrelevant HBV control epitope. A positive peptide-induced CTL/T memory response to a given epitope met all of the following conditions: 1) was greater than 5 SFC above the irrelevant epitope response, 2) was greater than the mean SFC of the irrelevant epitope response, plus 2 SD, and 3) was two-fold greater than the SFC response in the pre-vaccination sample from the same patient, plus 2 SD. The inclusion of “plus two standard deviations” was used to accommodate the assay variability and served to increase the criteria stringency.

IMIGHLVGV [CEA.691H5 A]
Mean SFC (central memory T cells [1]; Week 9): 178.0 SFC per 50,000 cells | Mean SFC (central memory T cells [1]; Week 18): 300.6 SFC per 50,000 cells | net SFC of vaccine positive CTL responses (central memory T cells [1]; colon patient 551, Week 9): 92.7 SFC per 50,000 cells | net SFC of vaccine positive CTL responses (central memory T cells [1]; colon patient 551, Week 18): 68.7 SFC per 50,000 cells | net SFC of vaccine positive CTL responses (central memory T cells [1]; colon patient 601, Week 9): 417.3 SFC per 50,000 cells | net SFC of vaccine positive CTL responses (central memory T cells [1]; colon patient 601, Week 18): 133.7 SFC per 50,000 cells | net SFC of vaccine positive CTL responses (central memory T cells [1]; colon patient 602, Week 9): — | net SFC of vaccine positive CTL responses (central memory T cells [1]; colon patient 602, Week 18): — | net SFC of vaccine positive CTL responses (central memory T cells [1]; colon patient 603, Week 9): 32.7 SFC per 50,000 cells | net SFC of vaccine positive CTL responses (central memory T cells [1]; colon patient 603, Week 18): 8.0 SFC per 50,000 cells | net SFC of vaccine positive CTL responses (central memory T cells [1]; colon patient 604, Week 9): 109.3 SFC per 50,000 cells | net SFC of vaccine positive CTL responses (central memory T cells [1]; colon patient 604, Week 18): 397.3 SFC per 50,000 cells | net SFC of vaccine positive CTL responses (central memory T cells [1]; colon patient 605, Week 9): 65.7 SFC per 50,000 cells | net SFC of vaccine positive CTL responses (central memory T cells [1]; colon patient 605, Week 18): — | net SFC of vaccine positive CTL responses (central memory T cells [1]; colon patient 606, Week 9): 24.3 SFC per 50,000 cells | net SFC of vaccine positive CTL responses (central memory T cells [1]; colon patient 606, Week 18): 45.0 SFC per 50,000 cells | net SFC of vaccine positive CTL responses (central memory T cells [1]; colon patient 607, Week 9): 593.3 SFC per 50,000 cells | net SFC of vaccine positive CTL responses (central memory T cells [1]; colon patient 607, Week 18): 1648.0 SFC per 50,000 cells | net SFC of vaccine positive CTL responses (central memory T cells [1]; colon patient 608, Week 9): — | net SFC of vaccine positive CTL responses (central memory T cells [1]; colon patient 608, Week 18): 18.0 SFC per 50,000 cells | net SFC of vaccine positive CTL responses (central memory T cells [1]; colon patient 609, Week 9): 89.0 SFC per 50,000 cells | net SFC of vaccine positive CTL responses (central memory T cells [1]; colon patient 609, Week 18): 86.0 SFC per 50,000 cells | Mean SFC (central memory T cells [2]; Week 9): 84.2 SFC per 50,000 cells | No. Positive Responses (central memory T cells [2]; Week 9): 2 | Mean SFC (central memory T cells [2]; Week 18): 132.7 SFC per 50,000 cells | No. Positive Responses (central memory T cells [2]; Week 18): 3 | net SFC of vaccine positive CTL responses (central memory T cells [2]; NSCLC patient 201, Week 9): — | net SFC of vaccine positive CTL responses (central memory T cells [2]; NSCLC patient 201, Week 18): — | net SFC of vaccine positive CTL responses (central memory T cells [2]; NSCLC patient 502, Week 9): — | net SFC of vaccine positive CTL responses (central memory T cells [2]; NSCLC patient 502, Week 18): — | net SFC of vaccine positive CTL responses (central memory T cells [2]; NSCLC patient 504, Week 9): 42.7 SFC per 50,000 cells | net SFC of vaccine positive CTL responses (central memory T cells [2]; NSCLC patient 504, Week 18): 284.0 SFC per 50,000 cells | net SFC of vaccine positive CTL responses (central memory T cells [2]; NSCLC patient 505, Week 9): — | net SFC of vaccine positive CTL responses (central memory T cells [2]; NSCLC patient 505, Week 18): 45.3 SFC per 50,000 cells | net SFC of vaccine positive CTL responses (central memory T cells [2]; NSCLC patient 532, Week 9): 125.7 SFC per 50,000 cells | net SFC of vaccine positive CTL responses (central memory T cells [2]; NSCLC patient 532, Week 18): — | net SFC of vaccine positive CTL responses (central memory T cells [2]; NSCLC patient 651, Week 9): — | net SFC of vaccine positive CTL responses (central memory T cells [2]; NSCLC patient 651, Week 18): 68.7 SFC per 50,000 cells | % of patients with positive CTL/central memory T cell response (central memory T cells [3]; phase 2, month 9): 43% | patients with positive CTL/central memory T cell response / patients tested (central memory T cells [3]; phase 2, month 9): 3/7 | % of patients with positive CTL/central memory T cell response (central memory T cells [3]; phase 2, month 12): 50% | patients with positive CTL/central memory T cell response / patients tested (central memory T cells [3]; phase 2, month 12): 2/4 | % of patients with positive CTL/central memory T cell response (central memory T cells [3]; phase 2, week 9): 64% | patients with positive CTL/central memory T cell response / patients tested (central memory T cells [3]; phase 2, week 9): 7/11 | % of patients with positive CTL/central memory T cell response (central memory T cells [3]; phase 2, week 18): 91% | patients with positive CTL/central memory T cell response / patients tested (central memory T cells [3]; phase 2, week 18): 10/11 | % of patients with positive CTL/central memory T cell response (central memory T cells [3]; phase 2, week 30): 33% | patients with positive CTL/central memory T cell response / patients tested (central memory T cells [3]; phase 2, week 30): 2/6
